Patent publication US20130096105A1, “ArylSulfonamide Based Matrix Metalloprotease Inhibitors” (NOVARTIS AG, priority 2008, published 2013)
Read-outs that look alike come from different tables or passages of the source.

Legend:
[1] = molecular target: T1, Gelatinase (MMP-2) (Homo sapiens, UniProt P08253); assay: Gelatinase (MMP-2) inhibitory activity, fluorogenic peptide substrate cleavage; assay type: biochemical
T1 sequence (P08253 110-660): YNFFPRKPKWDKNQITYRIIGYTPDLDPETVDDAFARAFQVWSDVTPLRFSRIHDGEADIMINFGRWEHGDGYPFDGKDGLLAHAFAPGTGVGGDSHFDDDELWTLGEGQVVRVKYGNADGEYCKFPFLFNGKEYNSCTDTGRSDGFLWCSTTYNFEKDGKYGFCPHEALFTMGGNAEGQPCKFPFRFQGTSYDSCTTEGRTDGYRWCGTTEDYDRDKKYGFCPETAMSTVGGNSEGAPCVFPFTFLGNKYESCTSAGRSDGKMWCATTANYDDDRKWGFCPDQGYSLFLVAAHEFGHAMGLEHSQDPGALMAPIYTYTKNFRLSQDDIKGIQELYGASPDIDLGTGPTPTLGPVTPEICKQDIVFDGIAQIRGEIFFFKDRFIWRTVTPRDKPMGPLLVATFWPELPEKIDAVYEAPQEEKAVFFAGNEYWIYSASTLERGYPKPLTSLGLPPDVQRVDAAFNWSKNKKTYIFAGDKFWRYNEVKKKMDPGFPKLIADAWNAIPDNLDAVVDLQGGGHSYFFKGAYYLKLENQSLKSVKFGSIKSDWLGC
Description: (§1) Gelatinase (MMP-2) inhibitory activities can be determined as follows: Stock solutions of substrate (MCA-Lys-Pro-Leu-Gly-Leu-Dpa-Ala-Arg-NH2) are prepared in DMSO at a concentration of 1.4 mM. Stock solutions of inhibitors (0.03 μM-3 mM) are also prepared in DMSO. The inhibitors are diluted into the assay solutions, and the controls use an equal volume of DMSO so that the final DMSO concentration from the inhibitor and substrate dilutions in all assays is 1.0%. Assays are performed in an assay buffer (100 mM sodium chloride, 10 μM ZnCl. Sub 2, 10 mM CaCl2, 100 mM Tris-Cl pH7.5, 0.05% Brij-35), containing 1.0% DMSO from the substrate and inhibitor additions. The substrate concentration used in the assays is 5 μM. The assays are carried out at 20-25° C. The fluorescence changes, as a result of substrate cleavage, are monitored using an excitation wavelength of 325 nm and an emission wavelength of 405 nm. The reaction mixtures are added in duplicate into appropriate wells of a 384-well assay plate. The reaction mixtures are preincubated with the inhibitors for 60 minutes The reactions are started by the addition of MMP substrate, and the fluorescence intensity changes are measured after 60 minutes The apparent enzyme activity in the presence of an inhibitor is then compared with that in the absence of any inhibitor to determine the inhibition effect of the inhibitor. These techniques are within the knowledge of one skilled in the art. The inhibition results are expressed as the inhibitor concentrations required to effect 50% inhibition (IC50) of the enzyme activity, as compared with the control (non-inhibited) reactions.

[2] = molecular target: Collagenase-3 (MMP-13) (Homo sapiens, UniProt P45452); assay: Collagenase-3 (MMP-13) inhibitory activity, fluorogenic peptide substrate cleavage; assay type: biochemical
Description: as §1
Collagenase-3 (MMP-13) inhibitory activity is determined as described above. Recombinant pro-collagenase-3 is activated with 1 mM APMA, and stored in the assay buffer after extensive dialysis in the assay buffer.

Compound | IC50 ([1]; read-out: MMP02 IC50) [nM] | IC50 ([2]; read-out: MMP13 IC50) [nM] | IC50 ([1]; read-out: IC50 (gelatinase MMP-2)) [nM] | IC50 ([2]; read-out: IC50 (collagenase-3 MMP-13)) [nM]
CCN(CC)c1ccc(C(=O)c2ccc(Cl)c(S(N)(=O)=O)c2)cc1 [Example 79, 2-Chloro-5-(4-diethylamino-benzoyl)-benzenesulfonamide] | 5720 | 10400 |  | 
NS(=O)(=O)c1cc(C(=O)c2ccc(N3CCCC3)cc2)ccc1Cl [Example 80, 2-Chloro-5-(4-pyrrolidin-1-yl-benzoyl)benzenesulfonamide] |  | 113 | 55 | ~113
NS(=O)(=O)c1cc(C(=O)c2ccc(N3CC=CC3)cc2)ccc1Cl [Example 81, 2-Chloro-5-[4-(2,5-dihydro-pyrrol-1-yl)-benzoyl]-benzenesulfonamide] | 1310 | 1010 |  | 
NS(=O)(=O)c1cc(C(=O)c2ccc(-n3cccc3)cc2)ccc1Cl [Example 82, 2-Chloro-5-(4-pyrrol-1-yl-benzoyl)-benzenesulfonamide] | 1150 | 860 |  | 
NS(=O)(=O)c1cc(C(=O)c2ccc(N3CCCCC3)cc2)ccc1Cl [Example 83, 2-Chloro-5-(4-piperidin-1-yl-benzoyl)-benzenesulfonamide] | 870 | 1770 |  | 
CC1CCCN(c2ccc(C(=O)c3ccc(Cl)c(S(N)(=O)=O)c3)cc2)C1 (centres unmarked) [Example 84, 2-Chloro-5-[4-(3-methyl-piperidin-1-yl)-benzoyl]-benzenesulfonamide] | 1350 | 7540 |  | 
NS(=O)(=O)c1cc(C(=O)c2ccc(N3CCC(c4ccccc4)CC3)cc2)ccc1Cl [Example 85, 2-Chloro-5-[4-(4-phenyl-piperidin-1-yl)-benzoyl]benzenesulfonamide] | 2050 | 570 |  | 
NS(=O)(=O)c1cc(C(=O)c2ccc(N3CCC(Cc4ccccc4)CC3)cc2)ccc1Cl [Example 86, 5-[4-(4-Benzyl-piperidin-1-yl)-benzoyl]-2-chloro-benzenesulfonamide] | > 30000 | 7670 |  | 
NS(=O)(=O)c1cc(C(=O)c2ccc(N3CCOCC3)cc2)ccc1Cl [Example 88, 2-Chloro-5-(4-morpholin-4-yl-benzoyl)-benzenesulfonamide] | 960 | 1840 |  | 
NS(=O)(=O)c1cc(C(=O)c2ccc(N3CCCCCC3)cc2)ccc1Cl [Example 90, 5-(4-Azepan-1-yl-benzoyl)-2-chloro-benzenesulfonamide] | 13800 | 10800 |  | 
COc1ccc(C(=O)c2ccc(Cl)c(S(=O)(=O)NCCc3ccc([N+](=O)[O-])cc3)c2)cc1 [Example 91, 2-Chloro-5-(4-methoxy-benzoyl)-N-[2-(4-nitro-phenyl)-ethyl]-benzenesulfonamide] | > 30000 | 22500 |  | 
NS(=O)(=O)c1cc(C(=O)c2ccc(Nc3ccccc3)cc2)ccc1Cl [Example 92, 2-Chloro-5-(4-phenylamino-benzoyl)-benzenesulfonamide] | 22800 | 20700 |  | 
NS(=O)(=O)c1cc(C(=O)c2ccc3ccccc3c2)ccc1Cl [Example 93, 2-Chloro-5-(naphthalene-2-carbonyl)benzenesulfonamide] | 26500 | 13700 |  | 
NS(=O)(=O)c1cc(C(=O)c2cc[nH]c2)ccc1Cl [Example 95, 2-Chloro-5-(1H-pyrrole-3-carbonyl)-benzenesulfonamide] | 3970 | 6210 |  | 
NS(=O)(=O)c1cc(C(=O)c2cccs2)ccc1Cl [Example 96, 2-Chloro-5-(thiophene-2-carbonyl)-benzenesulfonamide] | 10000 | 14700 |  | 
CC(C)c1n[nH]c2cc(C(=O)c3ccc(Cl)c(S(N)(=O)=O)c3)ccc12 [Example 101, 2-Chloro-5-(3-isopropyl-1H-indazole-6-carbonyl)-benzenesulfonamide] | 6350 | 3650 |  | 
NS(=O)(=O)c1cc(C(=O)c2ccc3c(c2)[nH]c2ccccc23)ccc1Cl [Example 102, 5-(9H-Carbazole-2-carbonyl)-2-chloro-benzenesulfonamide] | 1010 | 2710 |  | 

Other lines, results leading:

IC50 ([1]; read-out: MMP02 IC50) [nM] | IC50 ([2]; read-out: MMP13 IC50) [nM] | IC50 ([1]; read-out: IC50 (gelatinase MMP-2)) [nM] | IC50 ([2]; read-out: IC50 (collagenase-3 MMP-13)) [nM] | Compound
1740 | 1190 |  |  | CN1CCN(c2ccc(C(=O)c3ccc(Cl)c(S(N)(=O)=O)c3)cc2)CC1 [Example 87, 2-Chloro-5-[4-(4-methyl-piperazin-1-yl)-benzoyl]-benzenesulfonamide]
2060 | 3340 |  |  | NS(=O)(=O)c1cc(C(=O)c2ccc(N3CCC3=O)cc2)ccc1Cl [Example 89, 2-Chloro-5-[4-(2-oxo-azetidin-1-yl)-benzoyl]-benzenesulfonamide]
23500 | 22600 |  |  | NS(=O)(=O)c1cc(C(=O)c2ccc3c(c2)CCC3)ccc1Cl [Example 94, 2-Chloro-5-(indane-5-carbonyl)-benzenesulfonamide]
1210 | 630 |  |  | NS(=O)(=O)c1cc(C(=O)c2ccc3nc[nH]c3c2)ccc1Cl [Example 97, 5-(3H-Benzoimidazole-5-carbonyl)-2-chloro-benzenesulfonamide]
2250 | 8310 |  |  | Cc1nc2ccc(C(=O)c3ccc(Cl)c(S(N)(=O)=O)c3)cc2[nH]1 [Example 98, 2-Chloro-5-(2-methyl-3H-benzoimidazole-5-carbonyl)-benzenesulfonamide]
270 | 250 |  |  | CCc1n[nH]c2cc(C(=O)c3ccc(Cl)c(S(N)(=O)=O)c3)ccc12 [Example 99, 2-Chloro-5-(3-ethyl-1H-indazole-6-carbonyl)-benzenesulfonamide]
260 | 250 |  |  | Cc1n[nH]c2cc(C(=O)c3ccc(Cl)c(S(N)(=O)=O)c3)ccc12 [Example 100, 2-Chloro-5-(3-methyl-1H-indazole-6-carbonyl)benzenesulfonamide]
850 | 360 |  |  | CCOC(=O)N1CCc2[nH]c3cc(C(=O)c4ccc(Cl)c(S(N)(=O)=O)c4)ccc3c2C1 [Example 103, 7-(4-Chloro-3-sulfamoyl-benzoyl)-1,3,4,5-tetrahydro-pyrido[4,3-b]indole-2-carboxylic acid ethyl ester]
21400 | 1900 |  |  | CCOC(=O)N1CCc2[nH]c3ccc(C(=O)c4ccc(Cl)c(S(N)(=O)=O)c4)cc3c2C1 [Example 104, 8-(4-Chloro-3-sulfamoyl-benzoyl)-1,3,4,5-tetrahydro-pyrido[4,3-b]indole-2-carboxylic acid ethyl ester]
8000 | 9000 |  |  | NS(=O)(=O)c1cc(C(=O)c2ccc3c4c([nH]c3c2)C(=O)NCC4)ccc1Cl [Example 105, 2-Chloro-5-(1-oxo-2,3,4,9-tetrahydro-1H-beta-carboline-7-carbonyl)-benzenesulfonamide]
> 2700 | 950 |  |  | CC(C)(C)C(=O)N1CCc2c([nH]c3ccc(C(=O)c4ccc(Cl)c(S(N)(=O)=O)c4)cc23)C1 [Example 106, 2-Chloro-5-[2-(2,2-dimethyl-propionyl)-2,3,4,9-tetrahydro-1H-beta-carbolise-6-carbonyl]-benzenesulfonamide]
27 | 69 |  |  | CN1C(=O)CCC2=C1Cc1cc(C(=O)c3ccc(Cl)c(S(N)(=O)=O)c3)ccc12 [Example 107, 2-Chloro-5-(1-methyl-2-oxo-2,3,4,9-tetrahydro-1H-indeno[2,1-b]pyridine-7-carbonyl)-benzenesulfonamide]
